Laboratory results reported in the NIST ThermoML archive (doi:10.1021/je200124h).

Key:
[1] = wn = mass fraction of the nth substance listed; settings: for surface tension liquid-gas: Ring tensiometer; for viscosity / mass density: Liquid; for mass density: Pycnometric method
[2] = for surface tension liquid-gas: Ring tensiometer; for viscosity / mass density: 101.33 kPa, Liquid; for viscosity: Capillary tube (Ostwald / Ubbelohde) method; for mass density: Pycnometric method

CC(O)CNCC(C)O (configuration not stated) [N-(2-hydroxypropyl)-2-hydroxy-1-propanamine] + O
[1], w1 = 0.3873
Settings | surface tension liquid-gas [mN/m]
303.15 K | 45.3
313.15 K | 44.4
323.15 K | 43.2
333.15 K | 42.1
343.15 K | 40.5

[1], w1 = 0.3873
Settings | mass density, 303.15 K [kg/m3] | mass density, 313.15 K [kg/m3] | mass density, 323.15 K [kg/m3] | mass density, 333.15 K [kg/m3] | mass density, 343.15 K [kg/m3] | viscosity, 303.15 K [mPa·s] | viscosity, 313.15 K [mPa·s] | viscosity, 323.15 K [mPa·s] | viscosity, 333.15 K [mPa·s] | viscosity, 343.15 K [mPa·s]
101 kPa | – | – | – | – | – | 5.42 | 3.74 | 2.56 | 1.88 | 1.42
101.3 kPa | 1016 | 1012 | 1006 | 1000 | 994.5 | – | – | – | – | –

C1CNCCN1 [piperazine] + O
[1], w1 = 0.0516
Settings | surface tension liquid-gas [mN/m]
303.15 K | 69.56
313.15 K | 67.98
323.15 K | 66.49
333.15 K | 65.17

[1], 101 kPa, w1 = 0.0516
Settings | mass density [kg/m3] | viscosity [mPa·s]
303.15 K | 998.34 | 0.959
313.15 K | 993.9 | 0.775
323.15 K | 989.79 | 0.641
333.15 K | 985.1 | 0.542

O=S1(=O)CCCC1 [sulfolane]
[2]
Settings | mass density [kg/m3] | surface tension liquid-gas [mN/m] | viscosity [mPa·s]
303.15 K | 1262.3 | 47.95 | 10.18
313.15 K | 1254 | 47.22 | 7.85
323.15 K | 1245.7 | 46.61 | 6.15
333.15 K | 1236.5 | 45.74 | 4.4
343.15 K | 1229 | 45.16 | 3.57

O=S1(=O)CCCC1 [sulfolane] + O
[1], 101 kPa
Settings | mass density, 303.15 K [kg/m3] | mass density, 313.15 K [kg/m3] | mass density, 323.15 K [kg/m3] | mass density, 333.15 K [kg/m3] | mass density, 343.15 K [kg/m3] | viscosity, 303.15 K [mPa·s] | viscosity, 313.15 K [mPa·s] | viscosity, 323.15 K [mPa·s] | viscosity, 333.15 K [mPa·s] | viscosity, 343.15 K [mPa·s]
w1 = 0.0346 | 1003 | 999.7 | 995.2 | 990.1 | 984.3 | 0.84 | 0.69 | 0.58 | 0.49 | 0.43
w1 = 0.0487 | 1007 | 1003 | 998.2 | 993 | 987 | 0.85 | 0.7 | 0.59 | 0.5 | 0.44
w1 = 0.0721 | 1012 | 1007 | 1003 | 998.9 | 991.7 | 0.88 | 0.73 | 0.61 | 0.52 | 0.45
w1 = 0.1022 | 1020 | 1016 | 1010 | 1005 | 998 | 0.92 | 0.76 | 0.64 | 0.55 | 0.48
w1 = 0.1635 | 1038 | 1032 | 1026 | 1020 | 1012 | 1.02 | 0.84 | 0.71 | 0.61 | 0.54

OCCN(CCO)CCO [triethanolamine]
[2]
Settings | mass density [kg/m3] | surface tension liquid-gas [mN/m] | viscosity [mPa·s]
303.15 K | 1119.6 | 45.13 | 405.6
313.15 K | 1113.8 | 43.54 | 208.6
323.15 K | 1107.9 | 41.85 | 116
333.15 K | 1102 | 40.04 | 64.55
343.15 K | 1096.2 | 38.11 | 38.79

OCCN(CCO)CCO [triethanolamine] + O
[1], w1 = 0.4227
Settings | surface tension liquid-gas [mN/m]
303.15 K | 54.5
313.15 K | 53.8
323.15 K | 53
333.15 K | 52.3
343.15 K | 51.4

[1], w1 = 0.4227
Settings | mass density, 303.15 K [kg/m3] | mass density, 313.15 K [kg/m3] | mass density, 323.15 K [kg/m3] | mass density, 333.15 K [kg/m3] | mass density, 343.15 K [kg/m3] | viscosity, 303.15 K [mPa·s] | viscosity, 313.15 K [mPa·s] | viscosity, 323.15 K [mPa·s] | viscosity, 333.15 K [mPa·s] | viscosity, 343.15 K [mPa·s]
101 kPa | – | – | – | – | – | 4.13 | 2.91 | 2.16 | 1.67 | 1.36
101.3 kPa | 1052 | 1048 | 1043 | 1037 | 1032 | – | – | – | – | –
